Results on two molecules are retold here after patent US12605350B2, “Composition for preventing, ameliorating, or treating disease caused by nitration of tyrosine in proteins comprising tyrosine as effective component” (INDUSTRY-ACADEMIC COOPERATION FOUNDATION GYEONGSANG …, priority 2020, dated 2026).

Common to all, as to format: in vivo, mouse
For assay [1], the system named is acute renal failure caused by kidney ischemia or reperfusion injury. Put plainly: plasma creatinine (Jaffe method), renal ischemia and reperfusion. To be noted: L-tyrosine 100 mg/kg oral for 4 days, 24 hours after ischemia and reperfusion. The procedure:
C57BL/6 male mouse (23 to 25 g, KOATECH, South Korea) was allowed to have free access to diets and water in sterile breeding room with constant temperature and humidity. The animals were divided into 3 test groups, i.e., 1) Control group (Sham), 2) Renal ischemia having treatment with prepared solvent and induced reperfusion group (CMC+IR), and 3) Renal ischemia having treatment with L-tyrosine and induced reperfusion group (L-Tyr+IR). L-Tyrosine (100 mg/kg) was suspended in 0.5% CMC (carboxymethyl cellulose). The animal was orally administered, once a day for 4 days, with L-tyrosine or the prepared solvent CMC. Thirty minutes after the oral administration on Day 4, renal ischemia was caused. Specifically, the animal abdomen was cut and renal pedicles at both sides were clamped using a Muller atraumatic vascular clamp to cause renal ischemia. […] Blood collected in the above was centrifuged for 15 minutes at 3,000 rpm to separate plasma, and blood creatinine was measured by using Jaffe method. With regard to Jaffe method, based on a difference between the absorbance measured at a wavelength of 510 nm after the reaction of plasma sample with picric acid and the absorbance measured after completing the reaction using 60% acetic acid, the amount of creatinine was calculated and it was expressed in unit of mg/dl.

A further assay concerns NQO-1. The assay is described as follows: NQO-1 gene expression in kidney (quantitative real-time PCR), renal ischemia and reperfusion. As to conditions: L-tyrosine 100 mg/kg oral once a day for 4 days, 24 hours after ischemia and reperfusion, vs prepared solvent. The procedure: C57BL/6 male mouse (23 to 25 g, KOATECH, South Korea) was allowed to have free access to diets and water in sterile breeding room with constant temperature and humidity. The animals were divided into 3 test groups, i.e., 1) Control group (Sham), 2) Renal ischemia having treatment with prepared solvent and induced reperfusion group (CMC+IR), and 3) Renal ischemia having treatment with L-tyrosine and induced reperfusion group (L-Tyr+IR).
L-Tyrosine (100 mg/kg) was suspended in 0.5% CMC (carboxymethyl cellulose). The animal was orally administered, once a day for 4 days, with L-tyrosine or the prepared solvent CMC. Thirty minutes after the oral administration on Day 4, renal ischemia was caused. Specifically, the animal abdomen was cut and renal pedicles at both sides were clamped using a Muller atraumatic vascular clamp to cause renal ischemia. After 25 minutes of blood ischemia, the clamp was removed followed by reperfusion. The control group (Sham) received the same operational procedures as above except the ischemia using clamp. […]
According to Trizol method, total RNA was extracted from kidney tissues, and cDNA was synthesized by using Revert Aid Reverse Transcription System (ThermoFisher). Quantitative PCR was carried out with CFX Connect Real-Time PCR system (Bio-Rad) by using iQ SYBR Green Super mix (Bio-Rad). […]

The next assay deals with nitrotyrosine protein. The assay is described as follows: nitrotyrosine protein in liver tissues (Western blot), azoxymethane model. To be noted: L-tyrosine 100 mg/kg oral for 4 days, 16 hours after the administration of AOM. The procedure:
C57BL/6 male mouse (13-week old, KOATECH, South Korea) was allowed to have free access to diets and water in sterile breeding room with constant temperature and humidity. The animals were divided into 3 test groups, i.e., (1) Control group (Control), (2) Carboxymethyl cellulose+azoxymethane treatment group (CMC+AOM), and (3) L-Tyrosine+AOM treatment group (L-Tyr+AOM). L-Tyrosine (100 mg/kg) was suspended in 0.5% CMC (carboxymethyl cellulose). The animal was orally administered, once a day for 4 days, with L-tyrosine or the prepared solvent CMC. Two hours after the oral administration on Day 4, intraperitoneal injection of AOM (100 mg/kg, […]) was carried out. To prevent dehydration, the animal was intraperitoneally injected with […] of physiological saline, 12 hours after the administration of AOM. Four hours after the injection, the test animal was sacrificed, blood was collected from the heart, and the liver tissues were harvested.
Liver tissues were homogenized with RIPA buffer solution. After centrifuge for 15 minutes at 16,000×g, 4° C., supernatant was collected and the protein quantification was carried out by BCA method. After SDS-PAGE electrophoresis, proteins were transferred to a PVDF membrane, and then blocked with 5% skim milk. […]

Assay [2] deals with chronic immobilization stress group (STR). The assay is described as follows: TST (tail suspension test) after chronic immobilization stress. To be noted: tyrosine-diet (181.2 mg/kg) vs normal diet, p<0.05. The procedure:
The animal models were divided into two groups (i.e., normal group and stress group). The animal of stress group was individually brought by force to a restrainer for 2 hours every day (i.e., between 2 PM and 4 PM) so that it was applied with chronic immobilization stress for 15 days. Change in bodyweight and food intake amount were measured every other day. The normal group and stress group were divided again into a normal diet group and a tyrosine-supplemented diet group (181.2 mg/kg), and then fed. For TST (tail suspension test), the mouse was individually hung in a box with horizontal bar. To measure the immobile duration, animal movement was followed for 6 minutes.

Take `N[C@@H](Cc1ccc(O)cc1)C(=O)O` [L-tyrosine]: the creatinine in plasma result in assay [1] was “suppressed”. In the assay with NQO-1, the “expression of NQO-1 gene in kidney” value was “statistically significant increase in the expression of NQO-1 gene”. The “nitrotyrosine protein in liver tissues” value with nitrotyrosine protein is reported as “suppressed with statistical significance”.

As for `N[C@@H](Cc1ccc(O)cc1)C(=O)O` [tyrosine], the immobile duration entry in assay [2] is recorded as “statistically significant decrease in immobile duration”.
